Measurements reported in article PMC12136031 (Science Advances, 2025).

How the values were obtained:
TFEB = test: Immunoblot of TFEB in OC43-infected BEAS-2B cells; type: cell-based, human; details: for TFEB protein during viral infection: OC43, cotreatment with inhibitors of ubiquitin-proteasome system; for Decline in TFEB protein levels during viral infection: OC43, mTORC1 inhibition (10 nM)
[1] = molecular target: T1, DCAF7 recombinant protein, P61962; test: streptavidin pull-down (peptide binding assay), DCAF7 immunoblot densitometry; details: chain shown with the change; n = 3; parent: est. 1.0; read off a plot
T1 chain: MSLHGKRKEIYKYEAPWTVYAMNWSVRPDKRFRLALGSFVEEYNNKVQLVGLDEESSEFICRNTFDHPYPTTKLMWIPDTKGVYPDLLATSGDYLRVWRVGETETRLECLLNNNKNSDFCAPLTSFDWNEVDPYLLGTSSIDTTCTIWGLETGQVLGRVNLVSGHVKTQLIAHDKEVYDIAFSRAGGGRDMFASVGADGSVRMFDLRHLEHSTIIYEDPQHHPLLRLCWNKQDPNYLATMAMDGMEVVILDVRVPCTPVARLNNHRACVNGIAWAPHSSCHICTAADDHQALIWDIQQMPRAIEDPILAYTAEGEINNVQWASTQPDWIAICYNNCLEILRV

CC(C)C[C@H](NC(=O)[C@H](CCc1ccccc1)NC(=O)CN1CCOCC1)C(=O)N[C@@H](Cc1ccccc1)C(=O)N[C@@H](CC(C)C)C(=O)[C@@]1(C)CO1 [carfilzomib]
TFEB protein during viral infection (TFEB): substantially preserved

NS(=O)(=O)OC[C@H]1C[C@@H](Nc2ccnc3cc(-c4cccc(SC(F)(F)F)c4)nn23)[C@H](O)[C@@H]1O [TAK-243]
TFEB protein during viral infection (TFEB): substantially preserved

NS(=O)(=O)OC[C@@H]1C[C@@H](n2ccc3c(N[C@H]4CCc5ccccc54)ncnc32)C[C@@H]1O [MLN4924]
TFEB protein during viral infection (TFEB): substantially preserved

CCC(=O)N1CCN(c2ccc(-n3c(=O)ccc4cnc5ccc(-c6cnc7ccccc7c6)cc5c43)cc2C(F)(F)F)CC1 [Torin1]
Decline in TFEB protein levels during viral infection (TFEB): did not rescue

CO[C@H]1C[C@@H]2CC[C@@H](C)[C@@](O)(O2)C(=O)C(=O)N2CCCC[C@H]2C(=O)O[C@H]([C@H](C)C[C@@H]2CC[C@@H](O)[C@H](OC)C2)CC(=O)[C@H](C)/C=C(\C)[C@@H](O)[C@@H](OC)C(=O)[C@H](C)C[C@H](C)/C=C/C=C/C=C/1C [rapamycin]
Decline in TFEB protein levels during viral infection (TFEB): did not rescue

GNDAPNDPMA [Biotinylated TFEB peptide, region 136 to 145, unmodified sequence (I), P19484 S138D; S142D]
response [1]: 2.9

GNAAPNAPMA [Biotinylated TFEB peptide, region 136 to 145, unmodified sequence (I), P19484 S138A; S142A]
response [1]: 0.5
